From patent US20210060016A1, “ANTICANCER AGENT” (JAPANESE FOUNDATION FOR CANCER RESEARCH, priority 2017, published 2021)

How the values were obtained:
tankyrase 1 = target: T1, tankyrase 1 (Homo sapiens, UniProt O95271); assay: Tankyrase inhibitory activity test (ELISA, auto-poly(ADP-ribosyl)ation), TNKS1; type: biochemical; conditions: Flag-tagged tankyrase 1 (SAM+PARP), read-out: TNKS1 (inhibitory activity against tankyrase 1), IC50 rating
T1 construct: tankyrase 1 (1,024-1, 327aa, SAM+PARP); made in house; host or cells: cell-free protein expression system
T1 sequence (O95271 1024-1327): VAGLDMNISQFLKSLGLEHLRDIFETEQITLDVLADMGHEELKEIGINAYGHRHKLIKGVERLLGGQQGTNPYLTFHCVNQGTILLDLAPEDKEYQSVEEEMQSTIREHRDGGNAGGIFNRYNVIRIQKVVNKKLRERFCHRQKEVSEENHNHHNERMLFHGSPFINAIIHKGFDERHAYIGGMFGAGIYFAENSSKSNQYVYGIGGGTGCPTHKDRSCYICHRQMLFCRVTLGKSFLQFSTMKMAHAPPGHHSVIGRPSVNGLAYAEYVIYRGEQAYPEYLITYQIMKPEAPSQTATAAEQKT
Method: (§1) The enzymatic activity of tankyrase 1 and the enzymatic activity of tankyrase 2 were measured by the ELISA method based on assessment of auto-poly(ADP-ribosyl)ation to evaluate the tankyrase inhibitory activity of the compound prepared in each of Compound Examples (test compound) (inhibitory activity against tankyrase 1 (TNKS1) and inhibitory activity against tankyrase 2 (TNKS2)). First, Flag-tagged tankyrase 1 (1,024-1, 327aa, SAM+PARP) and tankyrase 2 (613-1, 116aa, ANK5+SAM+PARP) were synthesized with a cell-free protein expression system, and diluted with a Tris buffer solution (50 mM Tris-HCl (pH 8.0), 150 mM NaCl, 10% glycerol). 50 μL of the diluted tankyrase 1 or tankyrase 2 was added to a plate with an anti-FLAG M2 monoclonal antibody immobilized thereon (Anti-FLAG High-Sensitivity M2-Coated Plate) (Sigma-Aldrich), and the mixture was left to stand overnight at 4° C. Thereafter, the plate was washed four times with a PBS (PBST) buffer containing 0.1% TritonX-100.
(§2) Subsequently, the test compound diluted with an assay buffer (50 mM Tris-HCl (pH 8.0), 4 mM MgCl2, 0.2 mM DTT) (DMSO was used as a control) was added to each well of the plate, and the mixture was left to stand at room temperature for 10 minutes. Thereafter, a biotin-labeled NAD solution (225 μM NAD, 25 μM 6-Biotin-17-NAD (Travigen, Inc.)) was added and mixed as a donor substrate, and the mixture was reacted at 30° C. for 45 minutes. To blank wells was added distilled water instead of the biotin-labeled NAD solution. After the reaction, the plate was washed with a PBST buffer four times. Thereafter, HRP (horseradish peroxidase)-labeled streptavidin (Travigen, Inc.) was diluted with a PBS buffer by 1,000 times, and added to each well, and the mixture was reacted at room temperature for 20 minutes. The plate was washed with a PBST buffer four times, a chemiluminescent substrate solution TACS-Sapphire (Travigen, Inc.) was then added to each well, the mixture was reacted at room temperature for 20 minutes, and thechemiluminescence intensity was measured using a chemiluminescence measuring apparatus.
(§3) The residual enzymatic activity in the presence of the test compound was determined from the following expression. On the basis of the residual enzymatic activity at each of multiple concentrations of the test compound, the enzyme inhibitory activity was calculated in terms of a 50%-inhibition concentration (IC50 value) using data analysis software Origin (LightStone Corp.). Residual activity (%)={(chemiluminescence intensity with test compound added)−(chemiluminescence intensity of blank)}/{(chemiluminescence intensity of control)−(chemiluminescence intensity of blank))

[1] = test system: human colorectal cancer cell line COLO-320DM; assay: Cell proliferation inhibitory activity test (Celltiter-Glo); type: cell-based; conditions: 96 hours, read-out: COLO-320DM (cell proliferation inhibitory activity), G150 rating
Method: The cell proliferation inhibitory activity of the compound, which had been prepared in each of Compound Examples, against the human colorectal cancer cell line COLO-320DM was evaluated by Celltiter-Glo Luminescent Cell Viability Assay (Promega Corporation; G7573). COLO-320DM cells were cultured in RPMI-1640 medium containing 2 mM glutamine (Wako Pure Chemical Industries, Ltd; 189-02025) supplemented with 10% fetal bovine serum. The cultured cells were washed with PBS, and then dissociated with trypsin/EDTA, and a cell solution with 3×10^4 cells/mL was prepared.
Subsequently, the cell solution was seeded in a 96-well microplate (Thermo/Nunc Company; 136101) in an amount of 70 μL per well, and cultured overnight under the condition of 37° C. and 5% COz. The next day, a test compound solution obtained by diluting the test compound (DMSO solution) with a cell culture medium (final concentration of DMSO was 1%) was added in an amount of 10 μL per well, and the mixture was reacted under the condition of 37° C. and 5% CO2 for 96 hours (a 1% DMSO solution was used as a control). Thereafter, a Celltiter-Glo Luminescent Cell Viability Assay reagent was added (Promega Corporation; G7573) in an amount of 80 μL per well, the mixture was stirred with a shaker for 2 minutes while light was blocked with an aluminum foil, and the mixture was incubated at room temperature for 10 minutes.
Thereafter, a luminescence signal was measured with a luminometer (Biotech Company; Synergy). The ratio of cell proliferation in each compound addition group to cell proliferation in a control group containing no test compound solution, where cell proliferation in the control group is 100%, was determined, and the value of a compound concentration necessary for suppressing the amount of residual cells to 50% of that in the control (G150) was calculated as the cell proliferation inhibitory activity. For the COLO-320DM (cell proliferation inhibitory activity against COLO-320DM) of each test compound as measured through the above-mentioned method, a test compound having a G150 value of less than 1 μM was rated “A”, a test compound having a G150 value of 1 μM or more and less than 10 μM was rated “B”, a test compound having a G150 value of 10 μM or more was rated “C”, and an unevaluated test compound was designated as “NT”.

tankyrase 2 = target: T2, tankyrase 2 (Homo sapiens, UniProt Q9H2K2); assay: Tankyrase inhibitory activity test (ELISA, auto-poly(ADP-ribosyl)ation), TNKS2; type: biochemical; conditions: Flag-tagged tankyrase 2 (ANK5+SAM+PARP), read-out: TNKS2 (inhibitory activity against tankyrase 2), IC50 rating
T2 construct: tankyrase 2 (613-1, 116aa, ANK5+SAM+PARP); made in house; host or cells: cell-free protein expression system
T2 sequence (Q9H2K2 613-1166): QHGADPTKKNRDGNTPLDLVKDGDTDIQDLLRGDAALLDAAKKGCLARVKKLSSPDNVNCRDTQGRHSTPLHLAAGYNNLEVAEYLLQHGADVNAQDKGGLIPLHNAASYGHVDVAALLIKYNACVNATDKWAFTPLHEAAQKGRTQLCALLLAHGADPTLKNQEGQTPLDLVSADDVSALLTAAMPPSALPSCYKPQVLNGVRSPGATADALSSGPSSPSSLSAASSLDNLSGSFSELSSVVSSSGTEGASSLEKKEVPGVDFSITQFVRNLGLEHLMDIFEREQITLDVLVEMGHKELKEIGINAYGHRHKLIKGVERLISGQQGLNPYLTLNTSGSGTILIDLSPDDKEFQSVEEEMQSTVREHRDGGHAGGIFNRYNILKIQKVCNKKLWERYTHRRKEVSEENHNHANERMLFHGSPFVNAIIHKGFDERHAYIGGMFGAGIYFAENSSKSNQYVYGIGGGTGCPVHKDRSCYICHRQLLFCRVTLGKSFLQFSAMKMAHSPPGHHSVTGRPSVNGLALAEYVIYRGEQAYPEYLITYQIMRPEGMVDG
Method: as §1, §2, §3

| IC50 (tankyrase 1) | IC50 [1] | IC50 (tankyrase 2) | SMILES |
| --- | --- | --- | --- |
| < 20 nM | < 1000 nM | < 20 nM | CCOc1ccc(-c2n[nH]nc2[C@H]2NC(=O)c3cccc(C)c3N2)cc1 [Compound Example 101, (2R)-2-[5-(4-Ethoxyphenyl)-2H-1,2,3-triazol-4-yl]-8-methyl-2,3-dihydro-1H-quinazolin-4-one] |
| < 20 nM | ≥ 10000 nM | 20 to 200 nM | COc1ccc(-c2c[nH]nc2C2NC(=O)c3cccc(C)c3N2)cc1 (stereo not drawn) [Compound Example 113, 2-[4-(4-Methoxyphenyl)-1H-pyrazol-3-yl]-8-methyl-2,3-dihydro-1H-quinazolin-4-one] |
